Paper PMC7026589, “Sensitive CometChip assay for screening potentially carcinogenic DNA adducts by trapping DNA repair intermediates” (Nucleic Acids Research, 2019)
Several values for one entry are separate records, joined by “and”; a condition that tells them apart may be missing. Identical values can stand only once. Like-named read-outs stand apart in the source and are kept apart here.

Columns and labels:
[1] = cited from earlier work
HepaRG™ cells [2] = test system: HepaRG™ cells
Description: Cryopreserved HepaRG™ (HPRGC10), a terminally differentiated hepatic cell line, was purchased from ThermoFisher Scientific (Waltham, MA). HepaRG™ was thawed and cultured according to manufacturer's instructions. Briefly, the general purpose working medium was WEM supplemented with 1X GlutaMAX™ and 1X HepaRG™ Thaw, Plate, & General Purpose Medium Supplement. The metabolism working medium was WEM supplemented with 1X GlutaMAX™ and HepaRG™ Maintenance/Metabolism Medium Supplement. HepaRG™ cells were thawed in the general purpose working medium and plated in a 96-well plate coated with collagen I at 100 000 cells/well. One day after plating, the general purpose working medium was changed to the metabolism working medium. The metabolism working medium was renewed on day 4 and day 6 after plating. On day 7, the cells were treated in the metabolism working medium.
(§1) To load cells into microwells, ∼2000–200 000 cells in suspension were placed into each macrowell, and the chip was incubated at 37°C in the presence of 5% CO2 for 15 min. Cell were loaded into microwells by gravity, and excess cells were then washed off with PBS by shear force. The chip was covered with a layer of overlay agarose (1% w/v low-melting point agarose solution in PBS, kept molten at 43°C until use). For complete gelation of the overlay agarose, the chip was kept at room temperature for two minutes followed by 2 min at 4°C.
(§2) The alkaline comet assay was performed as previously ([15],[79]). Sodium chloride (NaCl, 7581), disodium EDTA (Na2EDTA, 4931), and sodium hydroxide pellets (NaOH, 7708) were purchased from VWR, Radnor, PA. Trizma® base (T1503), Trizma® HCl (T5941) and Triton X-100 (X-100) were obtained from MilliporeSigma, St. Louis, MO. 10 000× SYBR™ Gold nucleic acid gel stain was obtained from ThermoFisher Scientific, Waltham, MA.
(§3) The alkaline lysis buffer (pH ∼ 10) was a solution of 2.5 M NaCl, 100 mM Na2EDTA, 10 mM Trizma® base, and 1% (v/v) Triton X-100 dissolved in deionized H2O (dI H2O). […] The neutralization buffer (pH ∼ 7.5) was prepared by dissolving Trizma® HCl in distilled H2O to a final concentration of 0.4 M.
(§4) Cells encapsulated in CometChip were lysed in the alkaline lysis buffer overnight at 4°C. The nuclei were unwound in the alkaline unwinding buffer for 40 min at 4°C, and the DNA was electrophoresed in the same buffer at the same temperature for 30 min at 1 V/cm and ∼300 mA. The CometChip was then washed three times in neutralization buffer by submerging for 5 min each time.
(§5) The DNA on CometChip was stained for 15 min at room temperature with 1× of SYBR™ Gold diluted in PBS, protected from light. Fluorescent images of the comets were captured at 40× magnification using an epifluorescence microscope (Nikon Eclipse 80i, Nikon Instruments, Inc., Melville, NY, USA) with a 480 nm excitation filter. Image acquisition was achieved by automatic scanning using a motorized XY stage. Comet images were automatically analyzed using Guicometanalyzer, a custom software developed in MATLAB (The MathWorks Inc., Natick, MA, USA) as previously described ([15]). For each condition, 100 comets or more were analysed. Outputs from Guicometanalyzer were processed and imported to a spreadsheet (Microsoft Excel, Microsoft Office Suite 2016) using Comet2Excel, an in-house software developed in Python (Python Software Foundation, Python version 2.7.10). Software is freely available upon request.
For this experiment, the comets were analysed using Trevigen® Comet Analysis Software.
(§6) A vehicle control condition was included by diluting DMSO in cell culture medium to get a final concentration of 0.5%. Cells were incubated with the test compound for 24 h at 37°C in the presence of 5% CO2.
HepaRG™ were incubated with the test compound for 24 h at 37°C in the presence of 5% CO2. A vehicle control (1% DMSO) was included.

CYP1A2 [3] = target: T1, CYP1A2 (Homo sapiens, UniProt P05177); assay type: cell-based; conditions: human
T1 sequence (P05177 whole entry): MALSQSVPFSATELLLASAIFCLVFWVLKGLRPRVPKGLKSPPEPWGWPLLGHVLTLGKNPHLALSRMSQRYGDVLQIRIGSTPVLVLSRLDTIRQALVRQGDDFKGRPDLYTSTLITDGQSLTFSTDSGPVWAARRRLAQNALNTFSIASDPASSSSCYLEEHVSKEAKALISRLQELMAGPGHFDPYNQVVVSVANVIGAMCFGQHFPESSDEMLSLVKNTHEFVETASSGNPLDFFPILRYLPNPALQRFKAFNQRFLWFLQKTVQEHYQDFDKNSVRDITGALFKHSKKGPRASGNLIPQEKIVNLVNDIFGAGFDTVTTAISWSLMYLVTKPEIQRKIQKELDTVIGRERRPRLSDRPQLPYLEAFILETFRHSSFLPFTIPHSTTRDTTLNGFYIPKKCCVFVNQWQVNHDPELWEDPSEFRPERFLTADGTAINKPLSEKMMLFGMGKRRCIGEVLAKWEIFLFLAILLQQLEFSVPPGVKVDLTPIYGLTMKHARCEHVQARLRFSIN
Description: (§7) The CYP450-Glo™ CYP3A4 assay with luciferin-IPA (V9001) and the CYP450-Glo™ CYP1A2 assay with luciferin-1A2 (V8421) were purchased from Promega, Madison, WI. The activity levels of CYP3A4 and CYP1A2 in cells were measured according to the manufacturer's protocol for non-lytic cell-based assays. Luminescent signals were recorded using a SpectraMax M2e microplate reader (Molecular Devices, Sunnyvale, CA, USA). Control wells with no cells were included to obtain background luminescence. The net signal for each sample was obtained by subtracting the background luminescence value.
(§8) CYP3A4 or CYP1A2 activity per cell can be obtained by normalizing CYP450-Glo™ values with cell numbers. After a sample was analyzed for CYP3A4 or CYP1A2 activity, the CTG® assay was performed to obtain an estimate of the number of viable cells in the sample. The result from CYP450-Glo™ was then divided by the CTG® value to obtain the average CYP3A4 or CYP1A2 activity per cell.

HepG2 cells = test system: HepG2 cells
Description: HepG2 (ATCC® HB-8065™), an immortalized cell line derived from human hepatocellular carcinoma, was obtained from the American Type Culture Collection (Manassas, VA). HepG2 cells were cultured in high-glucose DMEM supplemented with 10% FBS, 1× GlutaMAX™, and 100 U/ml Pen-Strep. For chemical exposures, exponentially growing cells were plated in a tissue cultured treated 96-well plate two days before treatment.
as §1, §2, §3, §4, §5, §6
HepG2 were incubated with the test compound for 24 h at 37°C in the presence of 5% CO2. A vehicle control (0.07% sodium bicarbonate) was included.
Cells embedded in CometChip were placed on ice and irradiated with 0, 0.9, 1.8, 3.6, 5.4, 7.2 and 9 Gy of gamma rays from a Cs 137 radiation source with a dose rate of 0.9 Gy/min. The irradiated cells were submerged into lysis buffer overnight and the alkaline CometChip assay performed as described above.

CYP1A2 [4] = target: T1, CYP1A2; assay type: cell-based; set-up: The activity levels of CYP3A4 and CYP1A2 in cells were measured according to the manufacturer's protocol for non-lytic cell-based assays; endogenous in cells; host or cells: HepG2; conditions: human
Description: as §7, §8

HepaRG™ cells [5] = assay type: cell-based, human
Description: The CTG® luminescent cell viability assay kit (G7570) was obtained from Promega, Madison, WI. Cell viability after 24 h of chemical treatment was measured according to the manufacturer's instructions. Luminescent signals were recorded using a SpectraMax M2e microplate reader (Molecular Devices, Sunnyvale, CA, USA) at room temperature. The emission bracket was from 360 to 750 nm. Control wells with no cells were included to obtain background luminescence, which was then subtracted from the signal measured in the sample wells.

[6] = 1 mM HU and 10 μM AraC, 24 h, doses with statistically significant result
[7] = 1 mM HU and 10 μM AraC, 24 h exposure

What does the source list for `Cc1ccc(N)cc1N` [2,4-DAT, 2,4-Diaminotoluene]?
Carcinogenicity IARC classification [1]: Group 2B; Alkaline CometChip HepaRG (+ HU + AraC) ‘+’ dose range (HepaRG™ cells [2]; [6]): 10 mM; Genotoxicity Alkaline CometChip HepaRG (+ HU + AraC) +/− (HepaRG™ cells [2]; [7]): +; Genotoxicity Alkaline CometChip HepaRG +/− (HepaRG™ cells [2]; without HU/AraC, 24 h exposure): −

With `O=c1cc(-c2ccccc2)oc2c1ccc1ccccc12` [ANF, α-Naphthoflavone] as the compound, how does the “B[a]P induction of CYP1A2 in the presence of ANF” value (CYP1A2 [3]) read?
Its value is “induction of CYP1A2 is prevented”.

And the “DNA damage by inhibitor alone” value (HepG2 cells)?
The value was “does not induce DNA damage”.

What about the “Level of B[a]P-induced SSBs in the presence of ANF” value (HepG2 cells) of the same compound?
Its value is “near background levels”.

And the “DNA damage by inhibitor alone” value (HepaRG™ cells [2])?
The value was “does not induce DNA damage”.

What about the “Level of B[a]P-induced SSBs in the presence of ANF” value (HepaRG™ cells [2]) of the same compound?
Its value is “near background levels”.

What about the “DNA damage by inhibitor alone” value (TK6 cells) of the same compound?
The value was “does not induce DNA damage”.

What about the “B[a]P induction of CYP1A2 in the presence of ANF” value (CYP1A2 [4]) of the same compound?
The value was “induction of CYP1A2 is prevented”.

For `O=C(N[C@H](CO)[C@H](O)c1ccc([N+](=O)[O-])cc1)C(Cl)Cl` [CAM, Chloramphenicol], which “Alkaline CometChip HepaRG (+ HU + AraC) ‘+’ dose range” value (HepaRG™ cells [2]; [6]) is on record?
Its value is 3.1 mM.

And the “Cytotoxicity” value (HepaRG™ cells [5]; HepaRG, 24 h, CTG)?
Its value is “high levels of cytotoxicity”.

What does the source list for `O=P1(N(CCCl)CCCl)NCCCO1` (centres unmarked) [CP, Cyclophosphamide monohydrate]?
DNA damage score (HepaRG™ cells [2]): positives; Genotoxicity Alkaline CometChip HepaRG (+ HU + AraC) +/− (HepaRG™ cells [2]): +; Genotoxicity Alkaline CometChip HepaRG +/− (HepaRG™ cells [2]): −; Alkaline CometChip HepaRG (+ HU + AraC) ‘+’ dose range (HepaRG™ cells [2]; human): 5 to 10 mM

With `N.N.[Cl][Pt][Cl]` [Cisplatin, cis-Diamineplatinum(II) dichloride] as the compound, how does the “Carcinogenicity IARC classification” value [1] read?
Its value is “Group 2A”.

What about the “DNA damage score” value (HepaRG™ cells [2]; HepaRG, using HU/AraC, 24 h) of the same compound?
Its value is “negative results”.

Which “Genotoxicity Alkaline CometChip HepaRG (+ HU + AraC) +/−” value (HepaRG™ cells [2]) does the source give for `COc1cc([C@@H]2c3cc4c(cc3[C@@H](O[C@@H]3O[C@@H]5CO[C@@H](C)O[C@H]5[C@H](O)[C@H]3O)[C@H]3COC(=O)[C@H]23)OCO4)cc(OC)c1O` [Etoposide] here?
Its value is “+”.

And the “Genotoxicity Alkaline CometChip HepaRG +/−” value (HepaRG™ cells [2])?
Its value is “−”.

With `OO` [H2O2] as the compound, how does the “Comets on alkaline CometChip (comet tails)” value (TK6 cells; TK6 cells, 50 μM H2O2) read?
Its value is “visibly large tails”.

Which results are given for `Oc1ccc(O)cc1` [HQ, Hydroquinone]?
Genotoxicity Alkaline CometChip HepaRG (+ HU + AraC) +/− (HepaRG™ cells [2]): +; Genotoxicity Alkaline CometChip HepaRG +/− (HepaRG™ cells [2]): −; Alkaline CometChip HepaRG (+ HU + AraC) ‘+’ dose range (HepaRG™ cells [2]; human): 0.33 mM; Cytotoxicity (HepaRG™ cells [5]): high levels of cytotoxicity

With `CC(=O)N1CCN(c2ccc(OCC3COC(Cn4ccnc4)(c4ccc(Cl)cc4Cl)O3)cc2)CC1` (centres unmarked) [KET, Ketoconazole] as the compound, how does the “DNA damage by inhibitor alone” value (HepG2 cells) read?
The value was “does not induce DNA damage”.

And the “DNA damage by inhibitor alone” value (HepaRG™ cells [2])?
The value was “does not induce DNA damage”.

And the “Level of AFB1-induced SSBs in the presence of KET” value (HepaRG™ cells [2])?
Its value is “reduced to near background levels”.

What about the “DNA damage by inhibitor alone” value (TK6 cells) of the same compound?
Its value is “does not induce DNA damage”.

Which “Carcinogenicity IARC classification” value [1] does the source give for `CN(C)N=O` [NDMA, N-Nitrosodimethylamine] here?
Its value is “Group 2A”.

And the “Alkaline CometChip HepaRG (+ HU + AraC) ‘+’ dose range” value (HepaRG™ cells [2]; [6])?
The value was 2.5 to 20 mM.

What about the “Genotoxicity Alkaline CometChip HepaRG (+ HU + AraC) +/−” value (HepaRG™ cells [2]; [7]) of the same compound?
The value was “+”.

And the “DNA damage score” value (HepaRG™ cells [2]; HepaRG, in the absence of HU/AraC, 24 h)?
The value was “positive result”.

What about the “Alkaline CometChip HepaRG ‘+’ dose range” value (HepaRG™ cells [2]; without HU/AraC, 24 h, doses with statistically significant result) of the same compound?
The value was 2.5 to 20 mM.

And the “Genotoxicity Alkaline CometChip HepaRG +/−” value (HepaRG™ cells [2]; without HU/AraC, 24 h exposure)?
The value was “+”.

Which results are given for `Nc1ccc(Cl)cc1` [PCA, p-Chloroaniline]?
Carcinogenicity IARC classification [1]: Group 2B; DNA damage score (HepaRG™ cells [2]; HepaRG, using HU/AraC, 24 h): negative results; Cell death (HepaRG™ cells [5]; HepaRG, highest dose (5 mM), 24 h): ~50%

For `C[C@H]1[C@H](OC(=O)CCC(=O)O)O[C@@H]2O[C@@]3(C)CC[C@H]4[C@H](C)CC[C@@H]1[C@@]24OO3` [artesunate, Artesunate], which “DNA damaging potential” value (HepG2 cells; HepG2, 24 h, absence vs presence of 1 mM HU and 10 μM AraC) is on record?
The value was “HU/AraC reveals a wider range of genotoxic artesunate doses”.

Which “Average % Tail DNA” value (HepG2 cells) does the source give for Aflatoxin B1 [AFB1] here?
Its value is 21.9% and 33.4%.

What about the “SSBs, dose-response” value (HepG2 cells) of the same compound?
Its value is “relatively small increase in SSBs”.

What about the “SSBs, dose-response” value (HepaRG™ cells [2]) of the same compound?
Its value is “strong dose-response relationship”.

What about the “SSBs, response” value (TK6 cells) of the same compound?
Its value is “no response”.
